“And” between values parts separate entries of the source, which are not always exact repeats. Identical values can stand only once. Like-named read-outs stand apart in the source and are kept apart here.
Key:
NiV-pVSV = assay: microbe, parasite or virus in culture; type: cell-based, Nipah virus envelope pseudotyped onto VSV
[1] = system: enveloped viruses, such as influenza, HIV-1 and TBEV; settings: cited from earlier work
enveloped viruses = settings: cited from earlier work
[2] = Vesicular stomatitis virus, Vero

Compound	IC50 (NiV-pVSV; [2]) [nM]	antiviral activity in SAR discussion (NiV-pVSV)	IC50 (NiV-pVSV) [nM]	also measured
CCN1C(=O)S/C(=C\c2ccc(-c3ccccc3[N+](=O)[O-])o2)C1=S [LJ-030, (Z)-3-ethyl-5-((5-(2-nitrophenyl)furan-2-yl)methylene)-2-oxothiazolidin-4-thione]	490	–	–	–
C=CCN1C(=O)S/C(=C\c2ccc(-c3ccccc3)o2)C1=S [LJ-029, (Z)-3-allyl-5-(5-phenyl-2-furyl)methylene-2-oxothiazolidine-4-thione]	4320	–	–	–
CCN1C(=O)/C(=C/c2cccc(-c3ccccc3)c2)SC1=S [LJ-019, (Z)-5-(Biphenyl-3-ylmethylene)-3-ethyl-2-thioxothiazolidin-4-one]	–	inactive	–	IC50 (μM) (NiV-pVSV): Inactive
O=C1NC(=S)S/C1=C\c1ccc(-c2ccccc2)o1 [LJ-031, (Z)-5-(5-phenyl-2-furyl)methylene-4-oxothiazolidine-2-thione]	1040	–	–	–
CCN1C(=O)/C(=C/c2ccc(-c3ccccc3OC)o2)SC1=S [LJ-010, (Z)-3-Ethyl-5-[5-(2-methoxyphenyl)-2-furyl]methylene-4-oxothiazolidine-2-thione]	800	–	400	–
CCN1C(=O)/C(=C/c2ccc(C)o2)SC1=S [LJ-013, (Z)-3-ethyl-5-((5-methylfuran-2-yl)methylene)-2-thioxothiazolidin-4-one]	–	–	–	IC50 (μM) (NiV-pVSV): Inactive
CCN1C(=O)/C(=C/c2ccc(-c3ccccc3[N+](=O)[O-])o2)SC1=S [LJ-015, (Z)-3-ethyl-5-((5-(2-nitrophenyl)furan-2-yl)methylene)-2-thioxothiazolidin-4-one]	1300	–	1030	–
lysophosphotidylcholine [LPC]	–	–	–	required molar concentration (total lipid content) [1]: ≥ 10%
CCCN1C(=O)/C(=C/c2ccc(-c3ccccc3)o2)SC1=S [LJ-003, (Z)-3-Propyl-5-(5-phenyl-2-furyl)methylene-4-oxothiazolidine-2-thione]	900	–	950	–
O=C1NC2CSC(CCCCC(=O)OCCCN3C(=O)/C(=C/c4ccc(-c5ccccc5)o4)SC3=S)C2N1 (stereo not drawn) [LJ-024]	–	retained good activity	–	IC50 (NiV-pVSV; read-out: IC50): 1900 nM and 1770 nM
C#CCN1C(=O)/C(=C/c2ccc(-c3ccccc3)o2)SC1=S [LJ-032, (Z)-3-(2-propynyl)-5-(5-phenyl-2-furyl)methylene-4-oxothiazolidine-2-thione]	1030	–	–	–
CCN1C(=O)/C(=C/c2ccco2)SC1=S [LJ-014, (Z)-3-ethyl-5-(furan-2-ylmethylene)-2-thioxothiazolidin-4-one]	–	–	–	IC50 (μM) (NiV-pVSV): Inactive
C=CCN1C(=O)C(Cc2ccc(-c3ccccc3)o2)SC1=S (stereo not drawn) [LJ-033, 3-Allyl-5-((5-phenylfuran-2-yl)methyl)-4-oxothiazolidin-2-thione]	–	completely inactive	–	IC50 (μM) (NiV-pVSV): Inactive
CCN1C(=O)/C(=C/c2ccc(-c3ccccc3)s2)SC1=S [LJ-018, (Z)-3-ethyl-5-((5-phenylthiophen-2-yl)methylene)-2-thioxothiazolidin-4-one]	4100	retained activity, albeit at slightly reduced levels	2650	–
C=CCN1C(=S)S/C(=C\c2ccc(-c3ccccc3)o2)C1=S [LJ-027]	–	–	–	IC50 (NiV-pVSV; read-out: IC50): 900 nM
(Z)-3-(2,4-Dioxo-5-((5-phenylfuran-2-yl)methylene)thioxothiazolidin-3-yl) propyl-5-(2-oxohexahydro-1H-thieno[3,4-d]imidazol-4-yl)pentanoate [LJ-037]	–	–	–	IC50 (μM) (NiV-pVSV): Inactive
CCN1C(=O)/C(=C/c2cnc(-c3ccccc3)o2)SC1=S [LJ-023, (Z)-3-Ethyl-5-((2-phenyloxazol-5-yl)methylene)-2-thioxothiazolidin-4-one]	2500	retained activity, albeit at slightly reduced levels	2400	–
CCN1C(=O)/C(=C/c2ccc(-c3ccccc3O)o2)SC1=S [LJ-016, (Z)-3-Ethyl-5-((5-(2-hydroxyphenyl)furan-2-yl)methylene)-2-thioxothiazolidin-4-one]	2200	tolerated but led to generally lower activity	2350	–
C=CCN1C(=O)S/C(=C\c2ccc(-c3ccccc3)o2)C1=O [LJ-025, (Z)-3-Allyl-5-((5-phenylfuran-2-yl)methylene)thiazolidine-2,4-dione]	–	completely inactive both in vitro and in vivo	–	IC50 (μM) (NiV-pVSV): Inactive; virion membrane morphology by EM (pVSV particles): not
CCN1C(=O)/C(=C/c2ccc(-c3ccccc3[N+]#N)o2)SC1=S.F[B-](F)(F)F [LJ-020, (Z)-3-Ethyl-5-[5-(2-diazoniophenyl)-2-furyl]methylene-4-oxothiazolidine-2-thione tetrafluoroborate]	–	tolerated but led to generally lower activity	–	–
NCCCN1C(=O)/C(=C/c2ccc(-c3ccccc3)o2)SC1=S [LJ-035, (Z)-3-(3-Aminopropyl)-5-((5-phenylfuran-2-yl)methylene)-4-oxothiazolidin-2-thione]	–	–	–	IC50 (μM) (NiV-pVSV): Inactive
CCN1C(=O)/C(=C/c2ccc(-c3cccc(F)c3)o2)SC1=S [LJ-007, (Z)-3-Ethyl-5-[5-(3-fluorophenyl)-2-furyl]methylene-4-oxothiazolidine-2-thione]	2500	–	1450	–
CCN1C(=O)/C(=C/c2ccc(-c3ccccc3N)o2)SC1=S [LJ-017, (Z)-5-((5-(2-Aminophenyl)furan-2-yl)methylene)-3-ethyl-2-thioxothiazolidin-4-one]	3400	tolerated but led to generally lower activity	1960	–
CCCCCCCCCCCCCCCCCCCCCCO [n-docosanol]	–	–	–	IC50 (enveloped viruses): millimolar
CN1C(=O)/C(=C/c2ccc(-c3ccccc3)o2)SC1=S [LJ-005, (Z)-3-Methyl-5-(5-phenyl-2-furyl)methylene-4-oxothiazolidine-2-thione]	1500	–	1220	–
CCN1C(=S)S/C(=C\c2ccc(-c3ccccc3[N+](=O)[O-])o2)C1=S [LJ-028]	–	–	–	IC50 (NiV-pVSV; read-out: IC50): 2010 nM
CC(C)(C)OC(=O)NCCCN1C(=O)/C(=C/c2ccc(-c3ccccc3)o2)SC1=S [LJ-036, (Z)-tert-Butyl 3-(4-oxo-5-((5-phenylfuran-2-yl)methylene)-2-thioxothiazolidine-3-yl)propyl carbamate]	–	–	–	IC50 (NiV-pVSV; read-out: IC50): 740 nM
CCN1C(=O)/C(=C/c2ccc(-c3cccc(OC)c3)o2)SC1=S [LJ-011, (Z)-3-Ethyl-5-[5-(3-methoxyphenyl)-2-furyl]methylene-4-oxothiazolidine-2-thione]	1500	–	1160	–
CC(=O)NCCCN1C(=O)/C(=C/c2ccc(-c3ccccc3)o2)SC1=S [LJ-034, (Z)—N-(3-(4-Oxo-5-((5-phenylfuran-2-yl)methylene)-2-thioxothiazolidin-3-yl)propyl)acetamide]	–	–	–	IC50 (μM) (NiV-pVSV): Inactive

— patent US20120219613A1 (priority 2009, published 2012)
